{
  "source": "patent US20160243096A1",
  "about": "“METHODS OF TREATING ORTH[…]” (Emergent Virology LLC, priority 2009, published 2016)",
  "key": {"[1]": {"test": "Iminosugar safety study in mice", "assay_type": "in vivo, BALB/c and C57/B1/6 mice", "details": "for weight loss compared to vehicle only control: BALB/c and C57/B1/6 mice, oral 100 and 10 mg/kg twice a day for 7 days; for clinical signs: highest concentration (100 mg/kg twice a day, 7 days)", "experimental": "Methods and Discussion: BALB/c and C57/B1/6 mice were given oral suspensions of UV-1, UV-4, UV-5, twice a day for seven days, in 100 ul per mouse at 100 and 10 mg/kg (2 mg and 0.2 mg/mouse, respectively) 8 hours apart for 7 days, and then monitored for weight loss and general health. […] The results of these experiments are in FIG. 6."}, "[2]": {"tested_on": "Influenza A virus H3N2 (Hong Kong)", "test": "Inhibition of infectivity / virus yield reduction in MDCK cells", "assay_type": "cell-based", "details": "virus yield reduced by 1 log10, 3 days", "experimental": "Table provides data for inhibition of infectivity of Influenza A virus H3N2 (Hong Kong) for NB-DNJ (UV-1), NN-DNJ (UV-2), N7-O-DNJ (UV-3), N9-DNJ (UV-4) and NAP-DNJ (UV-5).\nProcedure. The compounds were screened for inhibition of generation of infectious virus was conducted on the UV compounds at concentrations up to 500 μM. The influenza virus, Influenza A H3N2, Brisbane/10/2007 strain was evaluated for virus inhibition. MDCK cells (Madin Darby canine kidney cell line) obtained from American Type Culture Collection (ATCC, Manassas, Va.). Cells were cultured in U1traMDCK, supplemented with 2 mM L-glutamine, 1 μg/ml TPCK-treated trypsin and 100 U/ml penicillin, 100 μg/ml streptomycin in cell culture treated 24-well flat bottom plates at 37° C. in a 5% CO2 incubator for 24 hr or until 80% confluent prior to assay. Cells were pretreated with compounds in a final concentration of 0.5% DMSO for 1 hr followed by addition of virus inoculums. Three wells per virus are saved for a virus-only control. Only medium is added in exchange for compound in these wells, and virus is added after the initial 1 hr incubation. Three days later virus containing supernatants were collected and effect on reduction of virus yield are tested by assaying frozen and thawed eluates from each well for virus titer by serial dilution onto monolayers of MDCK susceptible cells."}, "[3]": {"tested_on": "INFV A H1N1 (strain A/Texas)", "test": "Influenza in vivo study: survival of infected mice", "design": "species or system Balb/c mice", "details": "~5 LD50 intranasal, monitored 15 days", "experimental": "UV-4 was administered as a free drug dissolved in acidic water. The compound was given at 100 mg/kg and 10 mg/kg by the oral route (intragastric via oral gavage—IG) twice daily. Balb/c mice received the compound for 10 days. Mice were infected with INFV A H1N1 (strain A/Texas) intranasally with ˜5 LD50 30 minutes following the first iminosugar dose.\n(§1) Animals were monitored for 15 days. Animals were weighed once per day, and given health scores 2X per day. Animals displaying severe illness (as determined by 30% weight loss, extreme lethargy, ruffled coat, or paralysis) were euthanized."}, "[4]": {"tested_on": "INFV A H1N1 (strain A/Texas)", "test": "Second influenza in vivo study: survival after H1/N1 (Texas) virus challenge", "design": "species or system Balb/c mice", "details": "100 mg/kg TID oral for 10 days, ~1 LD90", "experimental": "UV-4 was administered to the treated mice as a free drug dissolved in acidic water by the oral route (intragastric via oral gavage—IG) 100 mg/kg, TID for 10 days. The control mice received water orally, TID, instead of UV-4. Balb/c mice were used both for the treated mice and the control mice. Each mouse was microchipped for individual identity.\nMice were infected with INFV A H1N1 (strain A/Texas) intranasally with ˜1 LD90.\nas §1, with “2×” for “2X”, “euthanized. The endpoint was considered a death of the animal or a more than 30% weight loss.” for “euthanized.”\nThe studied mice include the following groups (10 mice per group):\n1) 1 hr pre-treatment. These mice received their first UV-4 dose 1 hr before being infected with INFV A H1N1 (strain A/Texas).\n2) 24 hr post-treatment. These mice received their first UV-4 dose 24 hr after being infected with INFV A H1N1 (strain A/Texas).\n3) 48 hr post treatment. These mice received their first UV-4 48 hr after being infected with INFV A H1N1 (strain A/Texas).\n4) 96 hr post treatment. These mice received their first UV-4 96 hr after being infected with INFV A H1N1 (strain A/Texas)."}},
  "data": [
    {"smiles": "CCCCN1C[C@H](O)[C@@H](O)[C@H](O)[C@H]1CO", "note": "[UV-1, N-Butyl deoxynojirimycin]", "values": [
      {"measurement": "weight loss compared to vehicle only control", "setting": "[1]", "value": "did not show any significant signs of weight loss"},
      {"measurement": "IC90", "setting": "[2]", "value": 20000, "unit": "nM"}
    ]},
    {"smiles": "CCCCCCCCCN1C[C@H](O)[C@@H](O)[C@H](O)[C@H]1CO", "note": "[UV-2, N-Nonyl deoxynojirimycin]", "values": [
      {"measurement": "IC90", "setting": "[2]", "value": 200, "unit": "nM"}
    ]},
    {"smiles": "CCCOCCCCCCN1C[C@H](O)[C@@H](O)[C@H](O)[C@H]1CO", "note": "[UV-3, N-(7-Oxadecyl)deoxynojirimycin]", "values": [
      {"measurement": "IC90", "setting": "[2]", "value": 200, "unit": "nM"}
    ]},
    {"smiles": "COCCCCCCCCCN1C[C@H](O)[C@@H](O)[C@H](O)[C@H]1CO", "note": "[UV-4, N-(9-Methoxynonyl)deoxynojirimycin]", "values": [
      {"measurement": "survival rate", "setting": "[3]; 10 mg/kg BID oral gavage for 10 days", "value": 90, "unit": "%"},
      {"measurement": "survival rate", "setting": "[3]; 100 mg/kg BID oral gavage for 10 days", "value": 90, "unit": "%"},
      {"measurement": "survival", "setting": "[4]; first dose 1 hr before infection", "value": 100, "unit": "%"},
      {"measurement": "survival", "setting": "[4]; first dose 24 hr after infection", "value": 100, "unit": "%"},
      {"measurement": "survival", "setting": "[4]; first dose 48 hr after infection", "value": 90, "unit": "%"},
      {"measurement": "survival", "setting": "[4]; first dose 96 hr after infection", "value": 90, "unit": "%"},
      {"measurement": "weight loss compared to vehicle only control", "setting": "[1]", "value": "did not show any significant signs of weight loss"},
      {"measurement": "IC90", "setting": "[2]", "value": 200, "unit": "nM"}
    ]},
    {"smiles": "[N-]=[N+]=Nc1ccc(NCCCCCCN2C[C@H](O)[C@@H](O)[C@H](O)[C@H]2CO)c([N+](=O)[O-])c1", "note": "[UV-5, N-(N-{4′-azido-2′-nitrophenyl}-6-aminohexyl)deoxynojirimycin]", "values": [
      {"measurement": "weight loss compared to vehicle only control", "setting": "[1]", "value": "did not show any significant signs of weight loss"},
      {"measurement": "clinical signs", "setting": "[1]; BALB/c mice", "value": "signs of diarrhea, red urine, and a ruffled appearance"},
      {"measurement": "clinical signs", "setting": "[1]; C57/B1/6 mice", "value": "these same symptoms but without the ruffled look"},
      {"measurement": "IC90", "setting": "[2]", "value": 200, "unit": "nM"}
    ]}
  ]
}
